The text below walks through data of patent publication US12590118B2, “Salt and crystal form of steroid derivative regulator” (Shanghai Hansoh Biomedical Co., Ltd., priority 2019, dated 2026).

Assay [1] deals with ICR mice. As to the kind of experiment: Forced swimming model in mice. Type of assay: in vivo. Particulars: dose 5 mpk p.o. The protocol:
The antidepressant effect of the compound was evaluated by the forced swimming model in mice.
Compounds of Examples 1 to 3, Example 9, Example 40, Example 41, Examples 48 to 52, Example 90 and Example 98 of the present invention, prepared by the applicant.
Male ICR mice (25-35 g) were adapted in the experiment environment for 3 days before the forced swimming test.
According to the experiment design, the mice were randomly grouped on the day before the experiment according to body weight, with 12 mice in each group. Before the test, the compounds of each example were administered intragastrically according to the Tmax thereof in the brain in mice pharmacokinetic experiment.
Respectively: • 1) Model group (0.5% CMC-Na-1% Tween 80 solution, p.o., 10 mL/kg); • 2) Compounds of Examples 1 to 3, Example 40, Example 41, Examples 48 to 51, Example 90 and Example 98 (10 mg/kg, p.o., 10 mL/kg); Example 9 and Example 52 (5 mg/kg, p.o., 5 mL/kg).
When being administered, the compounds of each example were suspended in 0.5% CMC-Na+1% Tween 80 solution to the desired concentration.
0.5-1 hour after administration, ICR mice were placed in a forced swimming device (transparent glass drum (water depth 18 cm, water temperature 25-26° C.), one mouse per tank) and forced to swim for 6 minutes. The forced swimming device recorded the floating time of the ICR mice during the entire 6 minutes, and the data of the latter four minutes were used for data analysis. The mice were taken out immediately after the swimming experiment, wiped dry and put back in their original cages.
Note: The criterion for determining the immobility time is that the mouse stops struggling in water and floats, and there are only slight limb movements to keep the head floating on the water.
3.4 Data Analysis Floating time percentage=100*floating time/240 s.

Assay [2] addresses GABA-A receptor. Description: 35S-TBPS binding assay (GABAA receptor binding ability assay). The arrangement: species or system Sprague-Dawley rat. As to conditions: rat cerebral cortex cell membrane, 5 μM GABA, 2 nM 35S-TBPS; read-out: IC50 on inhibiting the TBPS binding activity, 35S-TBPS bindng assay. The protocol:
1. The cerebral cortex of male Sprague-Dawley rat was isolated.
2. A pre-chilled 0.32 M sucrose solution (one tablet of protease inhibitor was added per 100 mL) was added to the cerebral cortex (the volume of sucrose solution was 10 times the volume of the cerebral cortex). The mixture was crushed with a 50 mL glass tissue homogenizer in batches and mixed well.
3. The mixture was centrifuged at 1,500 g, 4° C. for 10 minutes, and the supernatant was collected.
4. The mixture was centrifuged at 20,000 g, 4° C. for 30 minutes, and the supernatant was discarded.
5. The precipitate was resuspended with the pre-chilled phosphate buffer saline (PBS) (one tablet of protease inhibitor was added per 100 mL). An average of 4 mL of PBS was added per rat, and the mixture was mixed well with a glass tissue homogenizer.
6. The mixture was centrifuged at 10,000 g, 4° C. for 10 minutes, and the supernatant was discarded.
7. Steps 5 and 6 were repeated three times.
8. Finally, the precipitate was resuspended with 4 volumes of PBS. The resulting solution was dispensed, frozen in liquid nitrogen, and stored at −80° C.
9. The protein concentration was measured by the bicinchoninic acid (BCA) method.
1. 230 μL of PBS was added to each well of a well plate with 1.1 mL volume.
2. 60 μL of the cerebral cortex cell membrane (5 μg/μL) solution was added to each well, and the mixture was mixed well.
3. The test compound (3 μL per well) was added, and the plate was incubated at 25° C. for 5 minutes. The DMSO concentration was 1%. The initial compound concentration was […], and a
3-fold dilution in gradient was carried out to obtain a total of 8 gradients and 2 replicates. 1% DMSO was used as a negative control, and 10 μM P026-2 was used as a positive control.
4. GABA was added at a final concentration of 5 μM, and incubated at 25° C. for 5 minutes. 1 mM GABA solution was formulated, and 1.5 μL of the solution was added to each well.
5. 35S-TBPS was added at a final concentration of 2 nM. The concentration of isotope mother solution was 9.7 μM. After dilution with PBS for 100 times, 6 μL of the diluted isotope solution was added to each well.
6. The plate was incubated at 4° C. for 20 hours.
7. The FilterMate GF/C plate was pre-treated with 0.5% PEI, and incubated at 4° C. for 1 hour.
8. The FilterMate GF/C plate was washed with Universal Harvester twice, 50 mL PBS each time.
9. The reaction solution was transferred to the GF/C plate, and each well was washed 4 times with 900 μL of PBS.
10. The washed GF/C plate was placed at 55° C. and dried for 10 minutes.
11. 40 μL of scintillation solution was added to each well, and the CPM value was read with TopCount.
In the experiment, the CPM (counts per minute) value was read with TopCount. According to the readings of the High control (DMSO) and the Low control (10 μM of the positive compound) experimental groups, the % inhibition was calculated based on the following formula: % Inhibition=100×(CPMHigh control−CPMsample)/(CPMHigh control−CPMLow control)
The IC50 of the compound was calculated according to the following 4-parameter nonlinear logic formula: Y=Bottom+(Top−Bottom)/(1+10^((Log IC50−X)*HillSlope)),
wherein: • X represents the log of compound concentration, • Y represents the % Inhibition.
The effect of the compound of the present invention on the TBPS binding activity was determined by the above test, and the measured IC50 values are shown in Table 5.

As to `C[C@@]1(O)CC[C@H]2[C@H](CC[C@@H]3[C@@H]2CC[C@@]2(C)[C@H]3[C@H](C3CC3)C[C@@H]2C(=O)Cn2ccnn2)C1` [Example 51, 1-((3R,5R,8R,9R,10S,13S,14S,15S,17S)-15-Cyclopropyl-3-hydroxy-3,13-dimethylhexadecahydro-1H-cyclopenta[a]phenanthren-17-yl)-2-(1H-1,2,3-triazol-1-yl)ethan-1-one], the “Mean (immobility, %)” value in assay [1] (floating time/240 s) is listed as 30.72%. For the same compound, in assay [1] (latter four minutes of 6 min swim), the “Mean (immobility, s)” value is recorded as 73.72 s.

For the compound `CC[C@@H]1C[C@H](C(=O)Cn2nnc(C)n2)[C@@]2(C)CC[C@H]3[C@@H](CC[C@@H]4C[C@](C)(O)CC[C@@H]43)[C@H]12` [Example 92, 1-((3R,5R,8R,9R,10S,13S,14S,15R,17S)-15-Ethyl-3-hydroxy-3,13-dimethylhexadecahydro-1H-cyclopenta[a]phenanthren-17-yl)-2-(5-methyl-2H-tetrazol-2-yl)ethan-1-one], the IC50 in assay [2] is 0.027 µM.

For the compound `C[C@@]1(O)CC[C@H]2[C@H](CC[C@@H]3[C@@H]2CC[C@@]2(C)[C@H]3[C@H](C3CC3)C[C@@H]2C(=O)Cn2ccc(C(F)(F)F)n2)C1` [Example 97, 1-((3R,5R,8R,9R,10S,13S,14S,15S,17S)-15-Cyclopropyl-3-hydroxy-3,13-dimethylhexadecahydro-1H-cyclopenta[a]phenanthren-17-yl)-2-(3-(trifluoromethyl)-1H-pyrazol-1-yl)ethan-1-one], the IC50 in assay [2] is 0.0186 µM.

Take `C[C@@H]1C[C@H](C(=O)Cn2ccnn2)[C@@]2(C)CC[C@H]3[C@@H](CC[C@@H]4C[C@](C)(O)CC[C@@H]43)[C@H]12` [Example 42, 1-((3R,5R,8R,9R,10S,13S,14S,15R,17S)-3-Hydroxy-3,13,15-trimethylhexadecahydro-1H-cyclopenta[a]phenanthren-17-yl)-2-(1H-1,2,3-triazol-1-yl)ethan-1-one]: the IC50 in assay [2] turned out to be 0.0246 µM.

As to `C[C@@]1(O)CC[C@H]2[C@H](CC[C@@H]3[C@@H]2CC[C@@]2(C)[C@H]3[C@@H]3C[C@@H]3[C@@H]2C(=O)Cn2ccc(C(F)(F)F)n2)C1` [Example 4, 1-((2R,4aS,4bR,6aS,7S,7aS,8aR,8bR,8cR,10aR)-2-Hydroxy-2,6a-dimethyloctadecahydrocyclopropa[4,5]cyclopenta[1,2-a]phenanthren-7-yl)-2-(3-(trifluoromethyl)-1H-pyrazol-1-yl)ethan-1-one], in assay [2], the IC50 was 0.0031 µM.

Regarding `CC[C@@H]1C[C@H](C(=O)Cn2ncnn2)[C@@]2(C)CC[C@H]3[C@@H](CC[C@@H]4C[C@](C)(O)CC[C@@H]43)[C@H]12` [Example 100, 1-((3R,5R,8R,9R,10S,13S,14S,15R,17S)-15-Ethyl-3-hydroxy-3,13-dimethylhexadecahydro-1H-cyclopenta[a]phenanthren-17-yl)-2-(2H-tetrazol-2-yl)ethan-1-one], the IC50 in assay [2] came out at 0.0256 µM.

For `C[C@@H]1C[C@H](C(=O)Cn2ncnn2)[C@@]2(C)CC[C@H]3[C@@H](CC[C@@H]4C[C@](C)(O)CC[C@@H]43)[C@H]12` [Example 44, 1-((3R,5R,8R,9R,10S,13S,14S,15R,17S)-3-Hydroxy-3,13,15-trimethylhexadecahydro-1H-cyclopenta[a]phenanthren-17-yl)-2-(2H-tetrazol-2-yl)ethan-1-one], the IC50 in assay [2] was 0.0061 µM.

Regarding `C[C@@]1(O)CC[C@H]2[C@H](CC[C@@H]3[C@@H]2CC[C@@]2(C)[C@H]3[C@@H]3C[C@@H]3[C@@H]2C(=O)Cn2cc(Cl)cn2)C1` [Example 14, 2-(4-Chloro-1H-pyrazol-1-yl)-1-((2R,4aS,4bR,6aS,7S,7aS,8aR,8bR,8cR,10aR)-2-hydroxy-2,6a-dimethyloctadecahydrocyclopropa[4,5]cyclopenta[1,2-a]phenanthren-7-yl)ethan-1-one], in assay [2], the 50% inhibitory concentration (IC50) is 0.0064 µM.

Consider `C[C@@]1(O)CC[C@H]2[C@H](CC[C@@H]3[C@@H]2CC[C@@]2(C)[C@H]3[C@@H]3C[C@@H]3[C@@H]2C(=O)Cn2cc(F)cn2)C1` [Example 30, 2-(4-Fluoro-1H-pyrazol-1-yl)-1-((2R,4aS,4bR,6aS,7S,7aS,8aR,8bR,8cR,10aR)-2-hydroxy-2,6a-dimethyloctadecahydrocyclopropa[4,5]cyclopenta[1,2-a]phenanthren-7-yl)ethan-1-one], for which, in assay [2], the IC50 was determined as 0.0287 µM.

In the case of `CCOC(=O)c1cnn(CC(=O)[C@H]2[C@H]3C[C@H]3[C@H]3[C@@H]4CC[C@@H]5C[C@](C)(O)CC[C@@H]5[C@H]4CC[C@@]32C)c1` [Example 35, Ethyl 1-(2-((2R,4aS,4bR,6aS,7S,7aS,8aR,8bR,8cR,10aR)-2-hydroxy-2,6a-dimethyloctadecahydrocyclopropa[4,5]cyclopenta[1,2-a]phenanthren-7-yl)-2-oxoethyl)-1H-pyrazole-4-carboxylate], in assay [2], the half-maximal inhibitory concentration (IC50) came out at 0.005 µM.

Consider `CC[C@@H]1C[C@H](C(=O)Cn2nccn2)[C@@]2(C)CC[C@H]3[C@@H](CC[C@@H]4C[C@](C)(O)CC[C@@H]43)[C@H]12` [Example 94, 1-((3R,5R,8R,9R,10S,13S,14S,15R,17S)-15-Ethyl-3-hydroxy-3,13-dimethylhexadecahydro-1H-cyclopenta[a]phenanthren-17-yl)-2-(2H-1,2,3-triazol-2-yl)ethan-1-one], for which the IC50 in assay [2] stood at 0.0239 µM.

As to `C[C@@]1(O)CC[C@H]2[C@H](CC[C@@H]3[C@@H]2CC[C@@]2(C)[C@H]3[C@@H]3C[C@@H]3[C@@H]2C(=O)Cn2ncc(C#N)c2C2CC2)C1` [Example 25, 5-Cyclopropyl-1-(2-((2R,4aS,4bR,6aS,7S,7aS,8aR,8bR,8cR,10aR)-2-hydroxy-2,6a-dimethyloctadecahydrocyclopropa[4,5]cyclopenta[1,2-a]phenanthren-7-yl)-2-oxoethyl)-1H-pyrazole-4-carbonitrile], the IC50 in assay [2] stood at 0.0281 µM.

With `Cc1nnnn1CC(=O)[C@H]1[C@H]2C[C@H]2[C@H]2[C@@H]3CC[C@@H]4C[C@](C)(O)CC[C@@H]4[C@H]3CC[C@@]21C` [Example 71, 1-((2R,4aS,4bR,6aS,7S,7aS,8aR,8bR,8cR,10aR)-2-Hydroxy-2,6a-dimethyloctadecahydrocyclopropa[4,5]cyclopenta[1,2-a]phenanthren-7-yl)-2-(5-methyl-1H-tetrazol-1-yl)ethan-1-one], the IC50 in assay [2] came to 0.0114 µM.

As usually defined, the IC50 is the concentration needed to halve the response being measured.
